Source: US4661297A, “Basic ethers of 7-oxo-7H-benzo(c) fluorene and a process for their production” (SPOFA, spojene podniky pro zdravotnickou vyrobu, priority 1980, dated 1987)
Values joined by “and” are separate entries in the source; they are usually repeats but may differ in a detail not shown here. Equal values may be shown once. “Also recorded” adds a separate entry of the source. Read-outs that look alike come from different tables or passages of the source.

Experiments:
[1] = tested on: haemolysins (antibody formation); assay: Haemolysin titre in mouse serum after ram erythrocyte immunization; type: in vivo; conditions: day 9; for Haemolysins titre: control 37
Excerpt: (§1) Haemagglutanin and haemolysin titres in mouse serum on day 9 after ram
(§2) immunization under effect of substance 13468. Substance injected
(§3) either for 5 days (2 days before, on day of, 2 days after immunization)
(§4) (2 days before, on day of, 8 days after immunization). Groups of 12
(§5) expressed by mean value of highest attenuation of serum eliciting

[2] = tested on: Ehrlich's ascitic carcinoma; assay: Incorporation of 14C-adenine and 14C-valine into cellular fraction of Ehrlich's ascitic carcinoma in vitro; type: cell-based, mouse; conditions: for Radioactivity incorporation, adenine: control 1060 cpm; for Radioactivity incorporation, valine: control 2455 cpm; for IC50 / activity at 75 µM / activity at 150 µM / activity at 18.75 µM / activity at 37.5 µM: Mus musculus, Ehrlich
Excerpt: In Table 4, the effect of Tiloron (NSC 143969; 2,7-bis-[2-(diethylamino)ethoxy]fluorene-9-one) and 5-(2-dimethylaminoethoxy)-7-oxo-7H-benzo(c) fluorene hydrochloride are compared on incorporation of ^14 C-adenine and ^14 C-valine with the cellular fraction of Ehrlich's ascitic carcinoma (insoluble in trichloacetic acid). The tests in vitro reveal that the composition of the invention was more than 10 times as effective as Tiloron. The inhibition of incorporation of adenine and valine into the used system of tumor cells is considered as an indication of an anti-tumorous, cytostatic action. This biological activity of the described compound is considerably greater than that of its congener Tiloron. (See also Table 4.)
Effects of Tiloron and substance 13468 on incorporation of ^14
C-adenine and ^14 C-valine
into cellular fraction of Ehrlichs ascitic carcinoma, insoluble in
in vitro. Radioactivity incorporation expressed in cpm.
IC50 = concentration inhibiting incorporation by 50 percent.

Acute toxicity in mice = conditions: mouse, in vivo, mice S, males 22-24 gram
Excerpt: The anti-tumor compounds described herein have also been studied from the standpoint of toxicity and the conclusion drawn that they are not toxic to mammalian hosts. The toxicological data set forth in Table IX, below, supports this conclusion.

[3] = tested on: haemagglutinins (antibody formation); assay: Haemagglutinin titre in mouse serum after ram erythrocyte immunization; type: in vivo; conditions: for Haemagglutinins % of control titre / Haemagglutinins titre: day 9; for Haemagglutinins titre: control 343
Excerpt: as §1, §2, §3, §4, §5

Ehrlich tumor = assay: Inhibition of incorporation of labelled substrate in Ehrlich tumor; type: cell-based; conditions: Mus musculus, substrate L-(U-14C) amino acid mixture
[4] = tested on: human myelogenous leukemia cells; assay: DNA biosynthesis inhibition in human myelogenous leukemia cells; type: cell-based
Yoshida's Tumor = assay: Inhibition of incorporation of labelled substrates in Yoshida's tumor; type: cell-based; conditions: Rattus norvegicus, read-out: IC50
Excerpt: Tumor growth may be observed clinically or in experiments in vivo, that is, with experimental animals, or in vitro, for example, in tissue cultures prepared from tumors. Assessment of tumor growth may be effected by measuring the weight of the tumor mass or, more effectively, by measuring the radioactivity after incorporation therein of certain substances of natural origin such as amino acids, adenine, thymidine and the like labelled with radioactive atoms such as ^14 C, ^3 H, etc.
Thus, by way of exemplification, the IC^50 values (inhibitory concentration which lowered the initial rate of ^14 C incorporation to 50% of control) are shown in Table VI, below (Yoshida's Tumor, (U-^14 C) amino acid mixture)
The ^IC 50 values of compound 13468 are also shown in Table VII with varying substrates.

CN(C)CCOc1cc2c(c3ccccc13)-c1ccccc1C2=O.Cl [compound 13468, 5-(2-Dimethylaminoethoxy)-7-oxo-7H-benzo(c) fluorene hydrochloride]
Haemolysins % of control titre ([1]; s.c. 5×8 mg/kg): 132%
Haemolysins titre ([1]; s.c. 5×8 mg/kg): 49
Haemolysins % of control titre ([1]; s.c. 5×40 mg/kg): under 27%
Haemolysins titre ([1]; s.c. 5×40 mg/kg, Suppressed): under 10
Haemolysins % of control titre ([1]; s.c. 11×8 mg/kg): under 27%
Haemolysins titre ([1]; s.c. 11×8 mg/kg, Suppressed): under 10
Haemolysins % of control titre ([1]; s.c. 11×40 mg/kg): under 27%
Haemolysins titre ([1]; s.c. 11×40 mg/kg, Suppressed): under 10
Radioactivity incorporation, adenine ([2]; 75 μM): 266 cpm
Radioactivity incorporation, valine ([2]; 75 μM): 887 cpm
Radioactivity incorporation, adenine ([2]; 150 μM): 59 cpm
Radioactivity incorporation, valine ([2]; 150 μM): 349 cpm
Radioactivity incorporation, adenine ([2]; 18,75 μM): 757 cpm
Radioactivity incorporation, valine ([2]; 18,75 μM): 2394 cpm
Radioactivity incorporation, adenine ([2]; 37,5 μM): 714 cpm
Radioactivity incorporation, valine ([2]; 37,5 μM): 2253 cpm
IC50 ([2]; read-out: IC50 (concentration inhibiting incorporation by 50 percent), adenine): 53 µM
IC50 ([2]; read-out: IC50 (concentration inhibiting incorporation by 50 percent), valine): 65 µM
activity at 75 µM ([2]; 75 μM, read-out: Incorporation of adenine relative to control (0 μM = 100%)): 25%
activity at 75 µM ([2]; 75 μM, read-out: Incorporation of valine relative to control (0 μM = 100%)): 36%
activity at 150 µM ([2]; 150 μM, read-out: Incorporation of adenine relative to control (0 μM = 100%)): 6%
activity at 150 µM ([2]; 150 μM, read-out: Incorporation of valine relative to control (0 μM = 100%)): 14%
activity at 18.75 µM ([2]; 18,75 μM, read-out: Incorporation of adenine relative to control (0 μM = 100%)): 71%
activity at 18.75 µM ([2]; 18,75 μM, read-out: Incorporation of valine relative to control (0 μM = 100%)): 98%
activity at 37.5 µM ([2]; 37,5 μM, read-out: Incorporation of adenine relative to control (0 μM = 100%)): 87%
activity at 37.5 µM ([2]; 37,5 μM, read-out: Incorporation of valine relative to control (0 μM = 100%)): 92%
times as effective as Tiloron ([2]; adenine and valine incorporation, in vitro): more than 10 times
LD50 (Acute toxicity in mice; iv, intravenously): 90 mg/kg
LD50 (Acute toxicity in mice; po, orally): 600 mg/kg
LD50 (Acute toxicity in mice; sc, subcutaneously): 490 mg/kg
Immunosuppressive effect on antibody formation ([3]; mice, in words, hydrochloride): immunosuppressive effects on antibody formation in mice; also recorded: inhibition of the formation of immunological serum anti-bodies
Haemagglutinins % of control titre ([3]; s.c. 5×8 mg/kg): 71%
Haemagglutinins titre ([3]; s.c. 5×8 mg/kg): 243
Haemagglutinins % of control titre ([3]; s.c. 5×40 mg/kg): 3.5%
Haemagglutinins titre ([3]; s.c. 5×40 mg/kg): 12
Haemagglutinins % of control titre ([3]; s.c. 11×8 mg/kg): 71%
Haemagglutinins titre ([3]; s.c. 11×8 mg/kg): 243
Haemagglutinins % of control titre ([3]; s.c. 11×40 mg/kg, Suppressed): under 2.9%
Haemagglutinins titre ([3]; s.c. 11×40 mg/kg, Suppressed): under 10
IC50 (Ehrlich tumor): 31 µM
IC50 [4]: 5 µM
IC50 (Yoshida's Tumor; substrate 5-iodo-2-deoxy(6-3H) uridine): 12 µM
IC50 (Yoshida's Tumor; substrate (6-3H) uridine): 36 µM and 12.6 µg/mL
IC50 (Yoshida's Tumor; substrate (thymine U-14C) thymidine): 4 µM
IC50 (Yoshida's Tumor; substrate L-(U-14)leucine): 29 µM
IC50 (Yoshida's Tumor; substrate L-(U-14C) amino acid mixture, Table VII): 32 µM
